Measured values published in US20150105252A1, “SUBSTITUTED PYRAZOLES AS HERBICIDES” (E I DU PONT DE NEMOURS AND COMPANY, priority 2013, published 2015).

System: cocklebur
Assay: Test F preemergence
Format: in vivo, Xanthium strumarium
Conditions: scale 0 to 100
Description: Seeds of plant species selected from corn (Zea mays), soybean (Glycine max), velvetleaf (Abutilon theophrasti), lambsquarters (Chenopodium album), wild poinsettia (Euphorbia heterophylla), pigweed, palmer (palmer pigweed, Amaranthus palmeri), common waterhemp (Amaranthus rudis), surinam grass (Brachiaria decumbens), large crabgrass (Digitaria sanguinalis), crabgrass, Brazil (Brazilian crabgrass, Digitaria horizontalis), fall panicum (Panicum dichotomiflorum), giant foxtail (Setaria faberii), green foxtail (Setaria viridis), goosegrass (Eleusine indica), johnsongrass (Sorghum halepense), common ragweed (Ambrosia elation), barnyardgrass (Echinochloa crus-galli), southern sandbur (Cenchrus echinatus), arrowleaf sida (Sida rhombifolia), Italian ryegrass (Lolium multiflorum), dayflower, VA (Virginia (VA) dayflower, Commelina virginica), field bindweed (Convolvulus arvensis), cocklebur (common cocklebur, Xanthium strumarium), morningglory (Ipomoea coccinea), nightshade (eastern black nightshade, Solanum ptycanthum), kochia (Kochia scoparia), yellow nutsedge (Cyperus esculentus), and hairy beggarticks (Bidens pilosa), were planted into a silt loam soil and treated preemergence with test chemicals formulated in a non-phytotoxic solvent mixture which included a surfactant.
At the same time, plants from these crop and weed species and also horseweed (Canada horseweed, Conyza canadensis), smartweed (ladysthumb smartweed, Polygonum persicaria), waterhemp_RES1, (ALS & Triazine resistant common waterhemp, Amaranthus rudis), and waterhemp_RES2, (ALS & HPPD resistant common waterhemp, Amaranthus rudis) were treated with postemergence applications of test chemicals formulated in the same manner. Plants ranged in height from 2 to 18 cm for postemergence treatments (1- to 4-leaf stage). Treated plants and controls were maintained in a greenhouse for 14 to 21 days, after which time all species were compared to controls and visually evaluated. Plant response ratings, summarized in Table F, are based on a scale of 0 to 100 where 0 is no effect and 100 is complete control. […]

CCc1cc(C(=O)NC2CC2)nn1Cc1ccnc(OCC(F)(F)F)c1 [Compound 200]
Plant response rating, Cocklebur (16 g ai/ha): 20
Plant response rating, Cocklebur (62 g ai/ha): 30
Plant response rating, Cocklebur (250 g ai/ha): 30
